# US20240067677A1, “Interference Peptides As Inhibitors Of Interactions Related To Ampar Endocytosis” (priority 2020, published 2024)
# Substitutions are numbered along the chain they refer to. “Also recorded” adds a separate entry of the source. Square brackets hold non-standard residues; d marks the D form. Ends that are not written are not given here. pY = N[C@@H](Cc1ccc(OP(=O)(O)O)cc1)C(=O)O
# Assays:
# [1] = test system: scopolamine (0.7 mg/kg)-treated rats; assay: Elevated plus-maze test; details: for number of entries in the open arms vs. Sco-alone treated rats / percentage of the open arms time vs. scopolamine-alone treated rats: peptide 15 μM, Sco 0.7 mg/kg
# Protocol: At the beginning of the experiment, there have been selected 30 adult male rats (Cantacuzino Institute™, Romania) having an average weight of 350 g (±10 g) and four months old. The animals were housed in the animal unit under controlled conditions of light (a 12-h cycle starting at 07:00 h) and temperature (22° C.). Food and water were provided ad libitum throughout the experiment. […] Scopolamine hydrobromide (Sco, 0.7 mg/kg) was administered 30 min before behavioral in vivo approaches.
# (§1) All surgical procedures were conducted under aseptic conditions, under sodium pentobarbital (50 mg/kg b.w., i.p., Sigma-Aldrich™, Darmstadt, Germany) anesthesia. Rats were mounted in the stereotaxic apparatus with the nose oriented 11° below horizontal zero plane. Two plastic guide cannulas (Portex™, 0.9 mm outer diameter) were bilaterally implanted stereotaxically in the dorsal hippocampus according to the following coordinates: A/P=3.6 mm, M/L=3.1 mm and D/V=2.4 mm. The cannulas were positioned with dental cement (Adhesor™ SpofaDental™) and secured by three stainless steel screw implanted into the skull. After surgery, the rats were isolated in separate cages and protected with a large spectrum antibiotic. Animals were given two weeks to recover from surgery and were handled daily during this period.
# Behavior in the elevated plus-maze test (E.P.M.) is utilized to assess exploration, anxiety and motor behavior. Each rat was placed in the center of the maze facing one closed arm. […] The percentages of time spent in the open arms were calculated using the formula:
# (time spent in the open arms/time spent in all arms)×100. • Forced Swimming Test
# [2] = test system: scopolamine (0.7 mg/kg)-treated rats; assay: Radial arm-maze test, scopolamine-induced cognitive impairment; details: for number of working memory errors vs. scopolamine-alone treated rats: peptide 15 μM into dorsal hippocampus; for number of working memory errors vs. scopolamine-alone treated rats / number of reference memory errors vs. scopolamine-alone treated rats: Sco 0.7 mg/kg; for number of reference memory errors vs. scopolamine-alone treated rats: peptide 15 μM
# Protocol: (§2) At the beginning of the experiment, there have been selected 30 adult male rats (Cantacuzino Institute™, Romania) having an average weight of 350 g (±10 g) and four months old. The animals were housed in the animal unit under controlled conditions of light (a 12-h cycle starting at 07:00 h) and temperature (22° C.). Food and water were provided ad libitum throughout the experiment. Rats were randomly divided into 6 groups (n=5 animals/group) as follows: Control group (sham-operated), Scopolamine (Sco) group (sham-operated, Sco: 0,7 mg/kg b.w., i.p., Sigma-Aldrich™, Darmstadt, Germany), and groups treated with TAT-p3Y, TAT-3Y, TAT-p3Ysh3, and TAT-pfin4 (15pIVI, GenScript™) received scopolamine. […] Scopolamine hydrobromide (Sco, 0.7 mg/kg) was administered 30 min before behavioral in vivo approaches.
# as §1
# As described before by Olton and Samuelson and Postu et al [63], using a radial arm maze test (RAM), the spatial memory was determined for one week.
# The maze comprised eight arms marked from 1 to 8 (48 cm×12 cm), with a radial extension of 32 cm in diameter from the central area, and it had 50 mg food pellets at the end of arms 1, 2, 4, 5, and 7. Four days of habituation sessions were performed. Rats were instructed to move to the end of the arms and to eat the bait during 5 min sessions. After habituation, only one trial per day was granted to all rats. For working and reference memory tasks, each rat was individually placed in the center of the maze.
# [3] = test system: scopolamine (0.7 mg/kg)-treated rats; assay: Y-maze test, scopolamine-induced cognitive impairment; details: peptide 15 μM; Sco 0.7 mg/kg
# Protocol: as §2, §1
# Spontaneous alternation behavior was evaluated in a single-session Y-maze, as previously described by Jackson Postu et al [63]. In the present study, the Y-maze used was built of Plexiglas having the following dimensions: 25 cm high, 35 cm long, 10 cm wide for each arm, and a central area in an equilateral triangular shape. […] The percentage of the involuntary alternation was determined according to the formula:
# [4] = molecular target: T1, GST-GluA2-STEP32 C/S complex (Homo sapiens, UniProt P54829, C496S); assay: GST-GluA2-STEP32 pulldown (SDS-PAGE / western blot); format: binding
# T1 construct: made in house; host or cells: STEP32 C/S: E. coli BL21(DE3); GST-GluA2: E. coli BL21
# T1 sequence (P54829 282-563 C496S): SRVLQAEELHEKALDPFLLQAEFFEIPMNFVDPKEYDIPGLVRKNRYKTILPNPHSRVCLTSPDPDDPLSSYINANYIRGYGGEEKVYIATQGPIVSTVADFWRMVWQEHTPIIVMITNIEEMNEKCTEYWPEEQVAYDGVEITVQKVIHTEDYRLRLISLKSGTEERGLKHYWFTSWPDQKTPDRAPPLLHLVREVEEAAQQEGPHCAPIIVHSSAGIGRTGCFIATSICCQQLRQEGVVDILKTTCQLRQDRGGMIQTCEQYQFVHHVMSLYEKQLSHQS
# Protocol: Prior to binding and after contacting the beads with phosphorylated GST-GluA2, the beads were washed thoroughly with interaction buffer (25 mM HEPES, 150 mM NaCl, 1 mM MgCl2, 1% Triton™ X-100, 1 mM DTT, pH=7,5). Triton™ X-100 was used to avoid nonspecific binding and to minimize the risk of precipitation for any of the proteins. […] Beads were washed twice with wash buffer to remove excess STEP32 C/S. Results were analyzed using SDS-PAGE (FIG. 2A).
# BRAG2-GluA2 complex = molecular target: T2, BRAG2-GluA2 complex (Homo sapiens, UniProt Q6DN90, E620K); assay: BRAG2-GluA2 pulldown with GSH Sepharose-coupled GST-GluA2 (SDS-PAGE); format: binding
# T2 construct: GST-GluA2: E. coli BL21
# Protocol: A. SDS-PAGE gel of the species pulled down with GSH Sepharose-coupled GST-GluA2. On the first lane, only BRAG2 was present in the solution containing the beads. On lanes 2-4 the BRAG2 solution also contained 1 mM of different peptides. B. BRAG2 band intensities from A. normalized to the GS T-GluA2 band intensities.
# Samples containing GST-GluA2 (150 μg) and BRAG2 (60 μg) were bound to Sepharose glutathione beads (20 μl). Prior to binding, the beads were washed thoroughly with interaction buffer (25 mM HEPES, 150 mM NaCl, 1 mM MgCl2, 1% Triton™ X-100, 1 mM DTT, pH=7.5). Triton™ X-100 was used to avoid nonspecific binding and to minimize the risk of protein precipitation. In a subsequent step, 3Y at different concentrations was added to the samples (1000 μM, 100 μM, 10 μM, 1 μM, 0.1 μM). A 2.5 mM solution (0.1 M PBS pH=7.4) was obtained. After incubating the samples for 90 minutes at 4 ° C. with stirring, the beads were washed with a buffer containing less Triton X-100 (25 mM HEPES, 150 mM NaCl, 1 mM MgCl2, 0.1% Triton™ X-100.1 mM DTT, pH=7.5). The species which remained trapped by the beads were analyzed by SDS-PAGE (FIG. 16).
# STEP32 WT = molecular target: T3, STEP32 WT (Homo sapiens, UniProt P54829); assay: In vitro dephosphorylation of pY876 of full length GluA2 by STEP32 WT (western blot)
# T3 sequence (P54829 282-563): T1 sequence (P54829 282-563 C496S) with S215C
# Description: GluA2-FL phosphorylated at Y876 site was immunoprecipitated from HEK293T cells overexpressing GluA2 and vSrc using anti-GluA2 antibodies and then submitted to in vitro dephosphorylation by purified STEP32 WT, in presence versus absence of TAT-phosphopeptides: TAT-p3Y, TAT-p3Y-sh3 and TAT-p-fin4. The dephosphorylation of the pY876 site of GluA2 FL was detected by western blotting using anti-pY876 antibodies and anti-GluA2 antibodies.
# The results represent mean±SEM of three independent experiments.
# Therefore, HEK293 cells were transfected with a pCMV-SPORT6-GRIA2 mammalian expression vector containing the cDNA of full length GluA2 (GluA2-FL). […] A sample consisting of immunoprecipitated GluA2 FL untreated with either STEP32 or peptides was also included into the study, as a control.
# [5] = test system: scopolamine (0.7 mg/kg)-treated rats; assay: Forced swimming test
# Protocol: At the beginning of the experiment, there have been selected 30 adult male rats (Cantacuzino Institute™, Romania) having an average weight of 350 g (±10 g) and four months old. The animals were housed in the animal unit under controlled conditions of light (a 12-h cycle starting at 07:00 h) and temperature (22° C.). Food and water were provided ad libitum throughout the experiment. Rats were randomly divided into 6 groups (n=5 animals/group) as follows: Control group (sham-operated), Scopolamine (Sco) group (sham-operated, Sco: 0,7 mg/kg b.w., i.p., Sigma-Aldrich™, Darmstadt, Germany), and groups treated with TAT-p3Y, TAT-3Y, TAT-p3Ysh3, and TAT-pfin4 (15pIVI, GenScript™) received scopolamine. The doses of the peptides were chosen according to a previous report [60]. Scopolamine hydrobromide (Sco, 0.7 mg/kg) was administered 30 min before behavioral in vivo approaches. […]
# The forced swimming test (F.S.T.) is used for assessing depressive-like responses [66]. The depressive-like response was assessed, basically using the same method described by Campos
# et al. [67], but with modifications. […] During the test session, the following behavioral responses were recorded: (i) immobility (time spent floating with the minimal movements to keep the head above the water); and (ii) swimming (time spent with active swimming movements). • Statistical Analyses
# T2 sequence (Q6DN90 with tags, fused parts or gaps E620K): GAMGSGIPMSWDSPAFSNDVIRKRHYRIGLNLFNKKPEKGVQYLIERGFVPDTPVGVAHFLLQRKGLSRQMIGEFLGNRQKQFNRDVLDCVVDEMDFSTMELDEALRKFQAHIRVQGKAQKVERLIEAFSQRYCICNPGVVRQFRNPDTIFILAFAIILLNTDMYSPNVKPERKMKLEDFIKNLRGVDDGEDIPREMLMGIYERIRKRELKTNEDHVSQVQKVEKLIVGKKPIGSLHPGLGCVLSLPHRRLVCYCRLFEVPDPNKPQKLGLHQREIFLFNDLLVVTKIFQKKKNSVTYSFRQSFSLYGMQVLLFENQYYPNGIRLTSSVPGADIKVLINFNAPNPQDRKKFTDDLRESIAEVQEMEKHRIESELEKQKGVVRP
Substance,number of entries in the open arms vs. Sco-alone treated rats [1],percentage of the open arms time vs. scopolamine-alone treated rats [1],number of working memory errors vs. scopolamine-alone treated rats [2],number of reference memory errors vs. scopolamine-alone treated rats [2],spontaneous alternation percentage / working memory vs. scopolamine alone [3],inhibition of formation of the GST-GluA2-STEP32 C/S complex [4],also measured
(TAT-)p3Y-sh3: p3Ysh-3 (EGYNVpY) N-terminally fused to the TAT cell-penetrating sequence (GRKKRRQRRRPQEGYNV[pY]),high number of entries in the open arms,high percentage of the open arms time,significant reduction in the number of working memory errors,significant reduction in the number of reference memory errors,successfully countered the effect of scopolamine on working-memory,significantly inhibit the interaction,
"ATYKEGYNVYG (not fully specified (residue 10)) [3Y, reference compound]",,,,,,,"p, Sco vs. peptide, open arms time % ([1]; 15 μM, Tukey's post hoc, n=5, FIG. 13): < 0.001; disruption of the BRAG2-GluA2 complex (BRAG2-GluA2 complex; 3Y in the range of concentrations 10 μM-1 mM): successfully disrupts the BRAG2-GluA2 complex"
"EGYNVY (Interference peptide capable of inhibiting the formation/disrupting the STEP-GluA2 complex or the GluA2-BRAG2 complex) [3Y-sh3, (uncoupled) novel 3Y-sh3 peptide, non-phosphorylated hexapeptide]",,,,,,,effect on the GST-GluA2-BRAG2 complex (BRAG2-GluA2 complex; 1 mM peptide (FIG. 17)): significant disrupting effect
(TAT-)p-fin 4: p-fin4 (EGYNVpYE) N-terminally fused to the TAT cell-penetrating sequence (GRKKRRQRRRPQEGYNV[pY]E),high number of entries in the open arms,high percentage of the open arms time,significant reduction in the number of working memory errors,significant reduction in the number of reference memory errors,successfully countered the effect of scopolamine on working-memory,strongest inhibitory effect; also recorded: significantly inhibit the interaction,"inhibition of pY876 GluA2-FL dephosphorylation by STEP32 WT (STEP32 WT; 0.1 mM and 1 mM peptide): highest inhibition of GluA2 dephosphorylation; P, no peptide sample vs. peptide + STEP32 WT sample, pY876 band intensity (STEP32 WT; 1 mM peptide, unpaired t-test with Welch's correction): < 0.05"
(TAT-)p3Y: p3Y N-terminally fused to the TAT cell-penetrating sequence GRKKRRQRRRPQ [reference compound],,,significant reduction in the number of working memory errors,,successfully countered the effect of scopolamine on working-memory,significantly inhibit the interaction,"p, Sco vs. peptide, immobility time ([5]; 15 μM, Tukey's post hoc, n=5, FIG. 12): < 0.0001; immobility time ([5]; peptide 15 μM, Sco 0.7 mg/kg): significant decline of the immobility time; p, Sco vs. peptide, number of reference memory errors ([2]; 15 μM, Tukey's post hoc, n=5, FIG. 10): < 0.01"
